What was measured:
carboxylesterase [1] = assay: Effect of enzyme inhibitors on hydrolysis of III in human liver microsomes; format: biochemical; details: for effect on hydrolysis of III: PMSF 20-500 uM, Proadifen 5-100 uM; for inhibition of hydrolysis of III: highest concentrations (NaF 500 mM, BNPP 500 uM)
Experimental: Human male liver microsomes (Xenotech LLC, Kansas City, CS) were incubated with III in presence of increasing concentrations of known inhibitors of carboxylesterase, protease, and cytochrome P450 enzymes, followed by LC/MS/MS analysis of a parent compound and a primary metabolite aniline. […] Incubations were carried out at 37° C., at final concentrations of 0.1 M potassium phosphate buffer/0.1 mM EDTA, pH 7.4, specified concentration of inhibitor, 2 μM substrate, 0.5 mg/mL microsomal protein, 0.1% DMSO, 0.5% acetonitrile, in absence of NADPH. Incubations were started with a substrate, following 10 min preincubation of microsomal reaction mixture with inhibitors at 37° C. Reactions were stopped at specified time points with acetonitrile/methanol/DMSO (50:25:25) containing an internal standard.

plasma blood esterases = assay: Stabilization of III in mouse blood by carboxylesterase inhibitors; format: in vitro ADME
Experimental: Heparinized fresh mouse blood (1.6 mL) from […] was added to Vacutainer Tubes: Cat # 367587, lot 2079758, approx. 2 mL volume (3 mg NaF+6 mg disodium EDTA/tube) and spiked with III at 20 ng/mL blood, with concentration of NaF in blood of […]. Samples were incubated in duplicate at 37° C. up to 2 h. Control samples were incubated in eppendorf tubes without sodium fluoride. Blood concentrations of III and its aniline metabolite were assayed by LC/MS/MS by procedure described in Example 6.

[2] = Metabolic stability in human liver microsomes; format: in vitro ADME
Experimental: (§1) Liver microsomes prepared from human (male and/or female) or Sprague-Dawley rat (female) (Xenotech LLC, Kansas City, CS), were incubated with compound II (FIG. 3) or III (FIG. 4), followed by LC/MS/MS analysis of a parent compound and a primary metabolite aniline. Incubations were carried out at 37° C., at final concentrations of 0.1 M potassium phosphate buffer/0.1 mM EDTA, pH 7.4, 1 μM substrate, 0.5 mg/mL microsomal protein, 0.01% DMSO, 0.3% acetonitrile, in presence or absence of 1 mM NADPH. Reactions were stopped at specified time points with acetonitrile/methanol/DMSO (50:25:25) containing an internal standard.

[3] = mouse, in vivo, po
Experimental: (§4) Balb/c male mice were predosed intraperitoneally with 100 mg/kg (20 mg/mL) of bis(p-nitrophenyl) phosphate (BNPP) in ethanol/polyethylene glycol (PEG400) 10:40 v/v or the vehicle, one hour before dosing with III at 1 mg/kg (1 mg/mL) by intravenous bolus in PEG400, or at 30 mg/kg (5 mL/kg) orally in TGPS/PEG400/PG/PBS.
(§5) Blood samples were collected into heparinized Microtainer tubes, spiked with 30% BNPP solution in ethanol, 10 μl/mL blood. Livers were snap frozen in liquid nitrogen. Samples were stored at −80° C. until analyzed by LC/MS/MS procedure, as described below.
(§6) The MRM mode of detection was used for LC/MS/MS analysis. Test compounds were extracted from plasma by direct protein precipitation with a mixture of acetonitrile, ethanol and dimethyl sulfoxide (DMSO) (2:1:1 v/v) and internal standard. Following vortexing and centrifugation, 10 μL of the extract was analyzed by LC-MS/MS.
(§7) Liver homogenate (20% volume in DMSO: water) was prepared using a Polytron homogenizer. Test compounds were extracted from 100 μL of the homogenized mixture as described for plasma and analyzed by LC/MS/MS.
(§8) LC/MS/MS was performed on PE-Sciex API3000 triple quadrupole mass spectrometer, using Betasil C8 column (3×50 mm, 3 μm), with mobile phase A: 0.1% formic acid in water, and B: 0.1% formic acid in acetonitrile. Multiple reaction monitoring (MRM) in the positive ionization mode and Analyst 1.1 software was used for quantitation and data acquisition.

carboxylesterase [4] = assay: Hydrolysis of Compound III in human small intestinal microsomes, effect of BNPP; format: in vitro ADME
[5] = biological target: T1, butyrylcholinesterase (BuChE: EC 3.1.1.8) (Equus caballus, UniProt P81908); assay: Hydrolysis of III by purified butyrylcholinesterase; format: biochemical, equine
T1 construct: butyrylcholine esterase, equine serum (pseudocholinesterase EC 3.1.1.8, Sigma C1057); purchased Sigma C1057; host or cells: equine serum
Experimental: (§2) The following purified enzymes were used for assays: carboxylesterase from porcine liver (EC 3.1.1.1, Sigma E3019); butyrylcholine esterase, equine serum (pseudocholinesterase EC 3.1.1.8, Sigma C1057); and acetylcholine esterase from electrical eel (EC 3.1.1.7, Sigma C2629).
(§3) Purified enzyme preparations (0.2-2.0 units/mL) were incubated 0-30 min at 37° C. in 0.1 M potassium phosphate buffer, 0.1 mM EDTA, pH 7.4 and 0.5 mg/mL of bovine serum albumin. The substrate was delivered in 0.02% DMSO and 0.6% acetonitrile. Incubations were performed for 0-30 min at 37° C., separately for each time point. The reactions were terminated by precipitation with acetonitrile/ethanol/DMSO mixture, followed by filtering and LC/MS/MS analysis. […] Initial rates of substrate disappearance or product appearance were calculated by linear regression of 5-6 separate incubations.

[6] = biological target: T2, acetylcholinesterase (AchE: EC 3.1.1.7) (Electrophorus electricus, UniProt O42275); assay: Hydrolysis of III by purified acetylcholinesterase; format: biochemical, electrical eel
T2 construct: acetylcholine esterase from electrical eel (EC 3.1.1.7, Sigma C2629); purchased Sigma C2629; host or cells: electric eel
Experimental: as §2, §3

carboxylesterase [7] = assay: Hydrolysis of Compound III in human colon microsomes, effect of BNPP; format: in vitro ADME
[8] = Hydrolysis of III in liver microsomes of several species; format: in vitro ADME, human, monkey, dog, rabbit, rat, mouse; details: rates per mg protein vary with species
Experimental: FIG. 4A and FIG. 4B show the stability of […] when incubated in presence of microsomes prepared from human liver (FIG. 4A) or rat liver (FIG. 4B).

[9] = tested on: pig liver carboxylesterase (EC 3.1.1.1); assay: Hydrolysis of III by purified pig liver carboxylesterase; format: biochemical, porcine; details: enzyme concentration dependent
Experimental: as §2, §3

[10] = Effect of BNPP pretreatment on exposure of III in mice; details: mice pretreated with BNPP vs untreated
Experimental: as §4, §5, §6, §7, §8

carboxylesterase [11] = assay: IC50 of carboxylesterase inhibitor (reduction in metabolic conversion of anti-HCV compound); format: biochemical
Description: The suitability of a carboxylesterase inhibitor may be confirmed by the guidance provided herein and by methods well known in the art. In one embodiment, in vitro systems may be used. For example, body fluids (e.g., blood), tissue homogenates, or microsomal preparations from tissues (e.g., liver, intestine, etc.) are contacted with the anti-HCV compound in presence or absence of varying concentrations of inhibitor. Decrease in substrate concentration and/or accumulation of metabolic product (e.g., aniline metabolite) are measured by techniques that include, by way of example and not limitation, LC/MS/MS, GC/MS and/or HPLC. These initial determinations can provide an IC50 of the carboxylesterase inhibitor sufficient to affect biotransformation of the anti-HCV compounds. Moroever, use of purified carboxylesterase enzymes, cDNA expressed enzymes, cells transfected with cloned carboxylesterase genes, etc., can be used to identify the specific enzymes responsible for the biotransformation.
Generally, an inhibitor plasma concentration of 5 μM or less is a reasonable IC50 for in vivo applications.

[12] = Metabolic stability in rat liver microsomes; format: in vitro ADME, Sprague-Dawley rat; details: rat liver microsomes (FIG. 4B)
Experimental: as §1

[13] = In vivo metabolite profile of 14C-labeled II in rats; parameters: species or system Sprague Dawley rats; details: intravenous administration, HPLC
Experimental: Following administration of the compound to rats, plasma and liver were analyzed by HPLC for drug related metabolites.
Male Sprague Dawley rats were given either a single 1 mg/kg (1 mL/kg) bolus intravenous dose in 70% polyethylene glycol (PEG) 400/30% saline via a tail vein, or a single 1 mg/kg (2 mL/kg) oral dose in 4% polysorbate 80/96% saline of ^14C-labeled anti-HCV II, with radioactive dose of about 30 μCi per animal.
Groups of rats (n=2/dose route/time point) were sacrificed at specified times from 0 to 3 h after dosing. Heparinized plasma and liver were harvested and stored at −70° C. until analyzed. The plasma was assayed by liquid scintillation counting (LSC) in Beckman LS-6000LL Liquid Scintillation Counter.
Livers were homogenized in deionized water, combusted and analyzed by LSC. Portion of the homogenate was extracted by sonication with acetonitrile, centrifuged, and subjected to radioprofiling of supernatant by the Liquid Chromatography with Accurate Radioisotope Counting (LC-ARC). Agilent Series 1100 with Packard Radiomatic 150 radioactivity detector was used for analysis. Waters Spherisorb ODS1, 5 μm, 250×4.6 mm column was used, with mobile phase A: water/acetic acid/ammonium hydroxide (2000:20:20, v/v/v), B: acetonitrile. The radioactivity of peaks was calculated using ARC Data System software.

[14] = Human Intestine (pooled 2 subjects), BNPP 50 μM
[15] = Human Intestine (pooled 2 subjects), BNPP 500 μM

T1 sequence (P81908 whole entry): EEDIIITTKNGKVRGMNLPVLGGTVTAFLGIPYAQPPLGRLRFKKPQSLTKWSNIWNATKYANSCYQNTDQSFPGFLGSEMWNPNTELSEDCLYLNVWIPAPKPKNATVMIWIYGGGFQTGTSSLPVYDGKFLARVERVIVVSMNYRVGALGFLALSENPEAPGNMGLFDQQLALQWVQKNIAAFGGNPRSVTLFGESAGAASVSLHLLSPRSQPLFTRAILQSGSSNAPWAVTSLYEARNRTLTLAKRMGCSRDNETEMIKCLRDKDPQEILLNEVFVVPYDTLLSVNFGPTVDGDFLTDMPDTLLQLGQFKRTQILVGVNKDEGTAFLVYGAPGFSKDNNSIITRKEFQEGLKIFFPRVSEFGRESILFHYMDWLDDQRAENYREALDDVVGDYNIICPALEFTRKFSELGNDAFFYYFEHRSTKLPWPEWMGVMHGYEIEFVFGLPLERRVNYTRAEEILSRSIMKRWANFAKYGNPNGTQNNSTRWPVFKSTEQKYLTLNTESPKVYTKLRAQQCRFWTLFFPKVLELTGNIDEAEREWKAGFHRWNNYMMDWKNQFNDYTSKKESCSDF
T2 sequence (O42275 24-633): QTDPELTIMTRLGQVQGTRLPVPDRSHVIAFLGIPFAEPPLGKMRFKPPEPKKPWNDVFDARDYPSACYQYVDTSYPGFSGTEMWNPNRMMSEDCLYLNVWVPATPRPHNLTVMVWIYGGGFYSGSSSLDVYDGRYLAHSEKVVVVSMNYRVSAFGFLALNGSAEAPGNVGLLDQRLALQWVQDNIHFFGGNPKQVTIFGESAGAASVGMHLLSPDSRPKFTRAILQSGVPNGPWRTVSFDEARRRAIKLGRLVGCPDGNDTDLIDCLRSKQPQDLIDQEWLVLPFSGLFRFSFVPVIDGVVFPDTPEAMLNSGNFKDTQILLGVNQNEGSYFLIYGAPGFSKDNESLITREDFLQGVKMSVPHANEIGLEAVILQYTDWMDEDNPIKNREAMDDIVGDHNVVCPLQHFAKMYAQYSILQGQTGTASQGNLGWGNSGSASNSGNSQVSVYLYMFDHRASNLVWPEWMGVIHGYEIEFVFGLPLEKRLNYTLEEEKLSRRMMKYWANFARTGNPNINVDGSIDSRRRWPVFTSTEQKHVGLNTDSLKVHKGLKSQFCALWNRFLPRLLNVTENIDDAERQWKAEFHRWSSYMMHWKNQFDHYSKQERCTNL

## CCCC(C(=O)OCCN(CC)CC)(c1ccccc1)c1ccccc1 [Proadifen, proadifen]
Carboxylesterase [1]
  effect on hydrolysis of III: did not affect hydrolysis

## [F-].[Na+] [NaF, Sodium fluoride]
Plasma blood esterases; 50 mM NaF
  effect of inhibitor on hydrolysis of III in blood: prevented hydrolysis
Carboxylesterase [1]
  inhibition of hydrolysis of III: Complete inhibition

## O=C(Nc1ccnc(-c2cc(-c3c(Cl)cccc3Cl)no2)c1)C(Cl)Cl [Compound III]
[2]; human liver microsomes, absence or presence of NADPH
  metabolic stability in vitro of III: Rapid disappearance of the parent compound
[3]
  Cmax: increased
  bioavailability (F): increased
  circulating metabolite: significantly reduced
  plasma exposure (AUC): increased
Carboxylesterase [4]; Human Intestine (pooled 2 subjects) microsomes, BNPP 0 μM, substrate 1.8 μM, substrate disappearance
  Activity: 1516 pmol/min/mg
[5]
  hydrolysis of III by purified enzyme: not an efficient substrate
[6]
  hydrolysis of III by purified enzyme: not an efficient substrate
Plasma blood esterases; absence of NaF
  stability of III in blood: rapid decrease in the levels of compound
Carboxylesterase [7]; Subject 1 microsomes, BNPP 0 μM, substrate 1.8 μM, substrate disappearance
  Activity: 257 pmol/min/mg
Carboxylesterase [7]; Subject 2 microsomes, BNPP 0 μM, substrate 1.8 μM, substrate disappearance
  Activity: 192 pmol/min/mg
[8]
  hydrolysis of III and conversion to aniline metabolite: occurs in microsomes prepared from livers of human, monkey, dog, rabbit, rat, and mouse
[9]
  hydrolysis of III by purified enzyme: efficiently hydrolyzed

## O=S(=O)(F)Cc1ccccc1 [PMSF, phenylmethanesulphonyl fluoride]
Carboxylesterase [1]
  effect on hydrolysis of III: weak inhibition

## O=[N+]([O-])c1ccc(OP(=O)(O)Oc2ccc([N+](=O)[O-])cc2)cc1 [BNPP, bis(p-nitrophenyl) phosphate]
Carboxylesterase [4]; [14]
  Activity: 28%
  Inhibition: 72%
Carboxylesterase [4]; Human Intestine (pooled 2 subjects), BNPP 50 μM, hydrolysis of Compound III 1.8 μM
  Activity: 432 pmol/min/mg
Carboxylesterase [4]; [15]
  Activity: 2.6%
  Inhibition: 97%
Carboxylesterase [4]; Human Intestine (pooled 2 subjects), BNPP 500 μM, hydrolysis of Compound III 1.8 μM
  Activity: 39 pmol/min/mg
[10]
  levels of parent compound in the liver: significantly increased
Carboxylesterase [11]
  IC50: 10 to 50 µM
Carboxylesterase [7]; Subject 1, BNPP 50 μM
  Activity: 75%
  Inhibition: 25%
Carboxylesterase [7]; Subject 1, BNPP 50 μM, hydrolysis of Compound III 1.8 μM
  Activity: 192 pmol/min/mg
Carboxylesterase [7]; Subject 2, BNPP 50 μM
  Activity: 121%
  Inhibition: 0%
Carboxylesterase [7]; Subject 2, BNPP 50 μM, hydrolysis of Compound III 1.8 μM
  Activity: 232 pmol/min/mg
Carboxylesterase [1]
  inhibition of hydrolysis of III: Complete inhibition

## O=C(Nc1cccc(-c2cc(-c3c(Cl)cccc3Cl)no2)c1)C(Cl)Cl [Compound II]
[2]; human liver microsomes (FIG. 4A)
  stability of II in microsomes: Rapid disappearance of parent compound
[12]
  stability of II in microsomes: Rapid disappearance of parent compound
[13]
  metabolite profile in plasma and liver: Aniline is the major product

Reference: US20050249805A1, “Compositions and methods for treating hepatitis C virus (HCV) infection” (priority 2003, published 2005)
